# Results as given in patent US10980778B2, “Methods for treating multiple osteochondroma (MO)” (Clementia Pharmaceuticals Inc., priority 2016, dated 2021).
# Like-named read-outs stand apart in the source and are kept apart here.
# How the values were obtained:
# [1] = tested on: Fsp1-Ext1^CKO mice; experiment: Effect of palovarotene on osteochondroma (OC) formation, alcian blue whole-mount skeletal staining of rib bones; format: in vivo
# Description: Biallelic conditional knock-out (CKO) of Ext1 using a Cre transgene driven by an Fsp1 promotor) (Fsp1-Ext1^CKO in mice leads to the formation of phenotypes characteristic of MO. Fsp1 expression in developing bone is restricted to the perichondrium and periosteum. Perichondrium-targeted Ext1 deletion in mice causes osteochondromatogenesis in long bones, vertebrae and ribs. Fsp1-Ext1^CKO mice appear normal at birth, present mild bone deformity by P (postnatal day) 28 and have normal life span. In these mice, bony protrusions consisting of bony tuberosities with a cartilage cap are first detectable after P14. These protrusions are consistent with the histological features of osteochondromas in human MO. By P28, all animals develop multiple osteochondromas that can be readily observed in whole-mount skeletal preparations. This phenotype supports the relevance of the Fsp1-Ext1^CKO mouse as a preclinical model of MO. It also mimics the findings observed in a previously developed mouse model of MO, the Col2a1-Ext1^CKO mice.
# The therapeutic effect of palovarotene in MO was tested in the Fsp1-Ext1^CKO mouse model. The CKO mice were treated with palovarotene (1.05 mg/kg) or vehicle by oral gavage daily. Treatment was initiated on day 14 postpartum and continued daily for 4 weeks. The effect of palovarotene on the formation of osteochondromas (OCs) in the mouse model was evaluated using whole-mount skeletal preparation. At end of treatment, the mice were euthanized by CO2 inhalation and the carcasses were eviscerated and fixed in 95% ethanol overnight. The preparations were stained with alcian blue for 3 days, rinsed in 95% ethanol, and incubated in 2% KOH for 1-2 days. Stained preparations were cleaned in 20% glycerol/1% KOH for 14 days and transferred to 50% glycerol/50% ethanol for photography and storage. By examination under a dissecting microscope, an alcian blue-positive protrusion that was clearly distinguishable was considered as an OC. OCs were identified and counted in each of the 24 rib bones from each mouse.
# The sum of these counts (total number of OCs at the rib bones) and the mean occurrence of response (number of rib bones showing no OCs vs. number of rib bones showing at least one OC) were reported for each treatment group.
# [2] = tested on: Fsp1-Ext1CKO mice; experiment: Crown-rump length in MO mouse model; format: in vivo
# Experimental: Crown-rump length, defined as mouse body length from snout to base of the tail, was measured using a ruler in vehicle and palovarotene treated Fsp1-Ext1CKO mice and untreated wild-type (WT) littermates at baseline (Study Day 1) and, 3 and 4 weeks post initiation of palovarotene treatment (Study Day 21 and 28, respectively). As show in FIG. 3, palovarotene treatment had no effect on crown-rump length after 4 weeks of daily oral treatment in Fsp1-Ext1CKO mice compared to vehicle controls.
# [3] = tested on: Fsp1-Ext1CKO mice; experiment: Dose response of palovarotene to inhibit OC formation (P14 and P21 cohorts); format: in vivo; conditions: for EC50 at AUC0-24 hr (percent decrease in total OCs at rib and limb bones): extrapolated exposure
# Experimental: Nonclinical pharmacology data: Fsp1-Ext1CKO mice were administered three doses of palovarotene (0.269 mg/kg [low], 0.882 mg/kg [mid], or 1.764 mg/kg [high]) for 28 consecutive days starting treatment at Day 14 postpartum (P14 cohort), or for 21 consecutive days starting at Day 21 postpartum (P21 cohort).
# To determine the dose exposure response, exposure in this study was extrapolated based on pharmacokinetic data obtained from adult wild-type (WT) mice with the assumption that pharmacokinetics in adult WT mice are similar to juvenile Fsp1-Ext 1CKO mice.
# [4] = Observed pharmacokinetic parameters, fixed and weight-based dosing regimen; format: in vivo, human; conditions: for AUC(0-t): human, in vivo, oral; for AUC Ratio (A/P) Mean (SD) / AUC Ratio (A/P) Median / AUC Ratio (A/P) Min / AUC Ratio (A/P) max: observed vs predicted
# Experimental: Table 4 summarizes the pharmacokinetic parameters of mean and median AUC0-24 values for subjects receiving 2.5 mg and 5.0 mg equivalent doses of palovarotene. Skeletally mature subjects received fixed dose regimens, while the skeletally immature subjects <18 years old were dosed via weight adjusted equivalent doses.
# One other parameter known to impact systemic exposure of palovarotene is food. For the clinical studies, all subjects are instructed to administer study medication at approximately the same time each day, and following a full meal, although the exact amount consumed is not recorded.
# [5] = mean occurrence of 24 rib bones, 1.05 mg/kg daily × 28 days, p=0.0039 vs vehicle (Fisher's exact test)
# [6] = PVO 2.5 mg Weight-Adjusted Equivalent
# [7] = PVO 5 mg Weight-Adjusted Equivalent
structure (smiles),measurement,setting,value
"CC1(C)CCC(C)(C)c2cc(Cn3cccn3)c(/C=C/c3ccc(C(=O)O)cc3)cc21 [Palovarotene, 4-[(1E)-2-[5,6,7,8-Tetrahydro-5,5,8,8-tetramethyl-3-(1H-pyrazol-1-ylmethyl)-2-naphthalenyl]-ethenyl]-benzoic acid]",Total number of OCs at the rib bones Mean (95% CI),"[1]; 1.05 mg/kg daily × 28 days, oral gavage from day 14 postpartum, n=9, vehicle 147.3",28.33 (23.23-33.43)
same,Effect on total number of OCs per rib bone and formation of OCs,"[1]; 1.05 mg/kg daily, 4 weeks, vs vehicle",reduced the total number of OCs per rib bone and prevent the formation of OCs
same,Number of rib bones showing at least one OC,[1]; [5],16
same,Number of rib bones showing no OC,[1]; [5],8
same,Cartilage hyperplasia,[1]; summary of the Examples,reduced cartilage hyperplasia
same,Number and size of osteochondromas observed,[1]; summary of the Examples,reduced the number and size of osteochondromas observed
same,Effect on crown-rump length,"[2]; after 4 weeks of daily oral treatment, compared to vehicle controls",no effect
same,Long bone growth,[2]; summary of the Examples,able to maintain long bone growth
same,Normal bone growth in the animal,[2]; summary of the Examples,did not interfere with normal bone growth
same,Occurrence of OCs,"[3]; 0.269, 0.882 or 1.764 mg/kg, 28 days from P14 or 21 days from P21, vs vehicle controls",inhibited the occurrence of OCs in a dose-dependent manner
same,Efficacy P14 cohort compared to P21 cohort,[3]; 28 days from P14 vs 21 days from P21,Greater efficacy was observed with earlier and longer dosing in the P14 cohort
same,EC50 at AUC0-24 hr (percent decrease in total OCs at rib and limb bones),[3]; P14 cohort,57 to 62 ng·h/mL
same,EC50 at AUC0-24 hr (percent decrease in total OCs at rib and limb bones),[3]; P21 cohort,125 to 173 ng·h/mL
same,Observed exposures using weight based dosing compared with fixed dosing,"[4]; 2.5 mg and 5.0 mg equivalent doses, few subjects in 2.5 mg group",tended to be lower than fixed dosing
same,AUC(0-t),"[4]; 2.5 mg, PVO 2.5 mg Fixed Dose, N=4, read-out: AUC0-24 h Mean (SD)",176 ng·h/mL
same,AUC(0-t),"[4]; 2.5 mg, PVO 2.5 mg Fixed Dose, N=4, read-out: AUC0-24 h Median",149 ng·h/mL
same,AUC(0-t),"[4]; 2.5 mg, PVO 2.5 mg Fixed Dose, N=4, read-out: AUC0-24 h Min",107 ng·h/mL
same,AUC(0-t),"[4]; 2.5 mg, PVO 2.5 mg Fixed Dose, N=4, read-out: AUC0-24 h max",31 ng·h/mL
same,AUC(0-t),"[4]; 2.5 mg, PVO 2.5 mg Weight-Adjusted Equivalent, N=3, read-out: AUC0-24 h Mean (SD)",98 ng·h/mL
same,AUC(0-t),"[4]; 2.5 mg, PVO 2.5 mg Weight-Adjusted Equivalent, N=3, read-out: AUC0-24 h Median",78 ng·h/mL
same,AUC(0-t),"[4]; 2.5 mg, PVO 2.5 mg Weight-Adjusted Equivalent, N=3, read-out: AUC0-24 h Min",37 ng·h/mL
same,AUC(0-t),"[4]; 2.5 mg, PVO 2.5 mg Weight-Adjusted Equivalent, N=3, read-out: AUC0-24 h max",179 ng·h/mL
same,AUC(0-t),"[4]; 5 mg, PVO 5 mg Fixed Dose, N=15, read-out: AUC0-24 h Mean (SD)",347 ng·h/mL
same,AUC(0-t),"[4]; 5 mg, PVO 5 mg Fixed Dose, N=15, read-out: AUC0-24 h Median",320 ng·h/mL
same,AUC(0-t),"[4]; 5 mg, PVO 5 mg Fixed Dose, N=15, read-out: AUC0-24 h Min",144 ng·h/mL
same,AUC(0-t),"[4]; 5 mg, PVO 5 mg Fixed Dose, N=15, read-out: AUC0-24 h max",667 ng·h/mL
same,AUC(0-t),"[4]; 5 mg, PVO 5 mg Weight-Adjusted Equivalent, N=6, read-out: AUC0-24 h Mean (SD)",249 ng·h/mL
same,AUC(0-t),"[4]; 5 mg, PVO 5 mg Weight-Adjusted Equivalent, N=6, read-out: AUC0-24 h Median",218 ng·h/mL
same,AUC(0-t),"[4]; 5 mg, PVO 5 mg Weight-Adjusted Equivalent, N=6, read-out: AUC0-24 h Min",139 ng·h/mL
same,AUC(0-t),"[4]; 5 mg, PVO 5 mg Weight-Adjusted Equivalent, N=6, read-out: AUC0-24 h max",363 ng·h/mL
same,AUC Ratio (A/P) Mean (SD),[4]; PVO 2.5 mg Fixed Dose,1.1 (0.7)
same,AUC Ratio (A/P) Median,[4]; PVO 2.5 mg Fixed Dose,0.9
same,AUC Ratio (A/P) Min,[4]; PVO 2.5 mg Fixed Dose,0.6
same,AUC Ratio (A/P) max,[4]; PVO 2.5 mg Fixed Dose,2.1
same,AUC Ratio (A/P) Mean (SD),[4]; [6],0.8 (0.6)
same,AUC Ratio (A/P) Median,[4]; [6],0.6
same,AUC Ratio (A/P) Min,[4]; [6],0.3
same,AUC Ratio (A/P) max,[4]; [6],1.4
same,AUC Ratio (A/P) Mean (SD),[4]; PVO 5 mg Fixed Dose,1.3 (0.7)
same,AUC Ratio (A/P) Median,[4]; PVO 5 mg Fixed Dose,1.1
same,AUC Ratio (A/P) Min,[4]; PVO 5 mg Fixed Dose,0.6
same,AUC Ratio (A/P) max,[4]; PVO 5 mg Fixed Dose,2.9
same,AUC Ratio (A/P) Mean (SD),[4]; [7],1.0 (0.3)
same,AUC Ratio (A/P) Median,[4]; [7],0.9
same,AUC Ratio (A/P) Min,[4]; [7],0.5
same,AUC Ratio (A/P) max,[4]; [7],1.4
same,AUCA/P ratio,"[4]; overall, observed vs predicted exposures",~1
